Test results from ChEMBL document CHEMBL1123967, “New potent antagonists of leukotrienes C4 and D4. 1. Synthesis and structure-activity relationships” (J Med Chem, 1988).

Experiments:
[1] = biological target: T1, Cysteinyl leukotriene receptor (Homo sapiens, UniProt Q9Y271+Q9NS75); test: Inhibition of LTC4 induced smooth muscle contraction of guinea pig ileum; type: functional, tissue-based, Cavia porcellus; settings: target entry is the homologue from another species
T1 sequence (Q9Y271 whole entry): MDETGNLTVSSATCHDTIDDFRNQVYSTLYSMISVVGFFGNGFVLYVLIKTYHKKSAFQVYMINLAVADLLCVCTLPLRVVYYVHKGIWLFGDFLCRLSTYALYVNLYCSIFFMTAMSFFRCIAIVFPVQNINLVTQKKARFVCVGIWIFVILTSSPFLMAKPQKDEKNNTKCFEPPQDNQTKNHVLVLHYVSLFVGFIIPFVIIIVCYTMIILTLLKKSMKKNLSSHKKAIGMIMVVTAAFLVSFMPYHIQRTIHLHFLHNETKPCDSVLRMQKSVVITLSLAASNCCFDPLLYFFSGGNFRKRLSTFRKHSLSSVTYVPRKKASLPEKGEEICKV
T1 sequence (Q9NS75 whole entry): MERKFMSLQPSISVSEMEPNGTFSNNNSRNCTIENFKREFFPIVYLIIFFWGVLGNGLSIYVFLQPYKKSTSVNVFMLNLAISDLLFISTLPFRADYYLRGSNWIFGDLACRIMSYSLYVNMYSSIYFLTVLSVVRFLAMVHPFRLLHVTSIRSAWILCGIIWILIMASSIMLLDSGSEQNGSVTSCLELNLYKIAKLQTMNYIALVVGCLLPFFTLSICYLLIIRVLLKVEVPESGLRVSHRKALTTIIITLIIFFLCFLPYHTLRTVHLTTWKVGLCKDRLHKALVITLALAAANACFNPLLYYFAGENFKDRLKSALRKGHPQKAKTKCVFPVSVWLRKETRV

[2] = biological target: Cysteinyl leukotriene receptor (Homo sapiens) (UniProt Q9Y271+Q9NS75); test: In vivo inhibition of LTD4-induced bronchoconstriction in anesthetized guinea pig.; type: functional, organism-based; settings: Cavia porcellus; target entry is the homologue from another species
[3] = system: Cavia porcellus; test: Inhibition of LTD4 (5 ng/site) induced vascular permeability in guinea pig skin at dose 10 mg/kg given perorally; type: functional; settings: route oral
[4] = system: Cavia porcellus; test: Inhibition of LTD4 (5 ng/site) induced vascular permeability in guinea pig skin at dose 0.3 mg/kg given perorally; type: functional; settings: route oral

| SMILES | IC50 [1] [nM] | further results |
| --- | --- | --- |
| CCCCCCCCCc1ccc(/C=C/C(=O)Nc2cccc3c2OC(c2nnn[nH]2)CO3)cc1 (stereo unspecified) | 3200 | – |
| CCCCc1ccc(C(=O)Nc2cccc3c2OC(c2nnn[nH]2)CO3)cc1 (stereo unspecified) | 1500 | – |
| CCCc1ccc(/C=C/C(=O)Nc2cccc3c2OC(c2nnn[nH]2)CO3)cc1 (stereo unspecified) | 490 | – |
| CCCCCCOc1ccc(C(=O)Nc2cccc3c(=O)cc(-c4nn[nH]n4)oc23)cc1 | 0.86 | – |
| CCCCCCCCCOc1ccc(C(=O)Nc2cccc3c(=O)cc(-c4nn[nH]n4)oc23)cc1 | 7.4 | – |
| CCCCCCCOc1ccc(/C=C/C(=O)Nc2cccc3c2OC(c2nnn[nH]2)CO3)cc1 (stereo unspecified) | 88 | – |
| CCCCCCCCCc1ccc(C(=O)Nc2cccc3c2OC(c2nnn[nH]2)CO3)cc1 (stereo unspecified) | 160 | – |
| CCCCCc1ccc(/C=C/C(=O)Nc2cccc3cc(-c4nn[nH]n4)oc23)cc1 | 3100 | – |
| CCCCCc1ccc(/C=C/C(=O)Nc2cccc3c2OC(c2nnn[nH]2)C3)cc1 (stereo unspecified) | 6900 | – |
| CCCCCC/C=C/COc1ccc(C(=O)Nc2cccc3c2OC(c2nnn[nH]2)CO3)cc1 (stereo unspecified) | 5.2 | ID50 [2]: 0.0041 mg/kg |
| CCCCCCCc1ccc(C(=O)Nc2cccc3c(=O)cc(-c4nn[nH]n4)oc23)cc1 | 4.2 | – |
| CCCCCCCOc1ccc(C(=O)Nc2cccc3c(=O)cc(-c4nn[nH]n4)oc23)cc1 | 0.5 | – |
| CCCCCC#CCOc1ccc(C(=O)Nc2cccc3c(=O)cc(-c4nn[nH]n4)oc23)cc1 | 0.14 | ID50 [2]: 0.0011 mg/kg |
| CCCCCCCCCCc1ccc(/C=C/C(=O)Nc2cccc3c2OC(c2nnn[nH]2)CO3)cc1 (stereo unspecified) | 1100 | – |
| O=C(Nc1cccc2c1OC(c1nnn[nH]1)CO2)c1ccc(OCCCc2ccccc2)cc1 (stereo unspecified) | 20 | – |
| CCCCCc1ccc(/C=C/C(=O)Nc2cccc3c2OC(C(=O)O)CO3)cc1 (stereo unspecified) | 830 | ID50 [2]: 0.22 mg/kg |
| CCCCCc1ccc(/C=C/C(=O)Nc2cccc3c2OC(c2nnn[nH]2)CO3)cc1 (stereo unspecified) | 370 | ID50 [2]: 0.33 mg/kg |
| CCCCCc1ccc(/C=C/C(=O)Nc2cccc3ccc(-c4nn[nH]n4)nc23)cc1 | 1000 | – |
| CCCOc1ccc(/C=C/C(=O)Nc2cccc3c2OC(c2nnn[nH]2)CO3)cc1 (stereo unspecified) | 660 | – |
| CCCCCCCCc1ccc(/C=C/C(=O)Nc2cccc3c2OC(c2nnn[nH]2)CO3)cc1 (stereo unspecified) | 580 | – |
| CCCCCc1ccc(/C=C/C(=O)Nc2cccc3c(=O)cc(-c4nn[nH]n4)oc23)cc1 | 30 | ID50 [2]: 0.014 mg/kg |
| CCCCCCOc1ccc(/C=C/C(=O)Nc2cccc3c(=O)cc(-c4nn[nH]n4)oc23)cc1 | 18 | – |
| CCCCCc1ccc(/C=C/C(=O)Nc2cccc3c(=O)cc(C(=O)O)oc23)cc1 | 240 | ID50 [2]: 0.32 mg/kg |
| CCCCCCc1ccc(/C=C/C(=O)Nc2cccc3c(=O)cc(-c4nn[nH]n4)oc23)cc1 | 32 | – |
| CCCCOc1ccc(C(=O)Nc2cccc3c2OC(c2nnn[nH]2)CO3)cc1 (stereo unspecified) | 220 | – |
| CCCCCCCOc1ccc(C(=O)Nc2cccc3c2OC(c2nnn[nH]2)CO3)cc1 (stereo unspecified) | 9 | inhibition in vivo at 10 mg/kg [3]: < 46.7% |

| SMILES | IC50 [1] [nM] | further results |
| --- | --- | --- |
| CCCCCOc1ccc(C(=O)Nc2cccc3c2OC(c2nnn[nH]2)CO3)cc1 (stereo unspecified) | 100 | – |
| CCCCCc1ccc(/C=C/C(=O)Nc2ccccc2OCc2nn[nH]n2)cc1 | 3000 | ID50 [2]: 0.5 mg/kg |
| CCCCCCCCc1ccc(C(=O)Nc2cccc3c(=O)cc(-c4nn[nH]n4)oc23)cc1 | 5.5 | – |
| O=C(Nc1cccc2c(=O)cc(-c3nn[nH]n3)oc12)c1ccc(OCCCc2ccccc2)cc1 | 0.96 | – |
| CCCCCC#CCOc1ccc(C(=O)Nc2cccc3c2OC(c2nnn[nH]2)CO3)cc1 (stereo unspecified) | 0.67 | ID50 [2]: 0.0064 mg/kg |
| CCCCCCCc1ccc(/C=C/C(=O)Nc2cccc3c2OC(c2nnn[nH]2)CO3)cc1 (stereo unspecified) | 350 | – |
| CCCCCc1ccccc1/C=C/C(=O)Nc1cccc2c1OC(c1nnn[nH]1)CO2 (stereo unspecified) | 2150 | – |
| CCC/C=C/COc1ccc(C(=O)Nc2cccc3c2OC(c2nnn[nH]2)CO3)cc1 (stereo unspecified) | 4.3 | ID50 [2]: 0.0135 mg/kg |
| C=CCCCCCCOc1ccc(C(=O)Nc2cccc3c2OC(c2nnn[nH]2)CO3)cc1 (stereo unspecified) | 1.3 | inhibition in vivo at 10 mg/kg [3]: < 75.2%; ID50 [2]: 0.0017 mg/kg |
| CCCCCCc1ccc(/C=C/C(=O)Nc2cccc3c2OC(c2nnn[nH]2)CO3)cc1 (stereo unspecified) | 140 | – |
| CCCCCOc1ccc(/C=C/C(=O)Nc2cccc3c2OC(c2nnn[nH]2)CO3)cc1 (stereo unspecified) | 120 | – |
| CCCCCc1ccc(/C=C/C(=O)Nc2ccccc2C(=O)O)cc1 | 14000 | ID50 [2]: 4.5 mg/kg |
| CCCCCCCc1ccc(/C=C/C(=O)Nc2cccc3c(=O)cc(-c4nn[nH]n4)oc23)cc1 | 100 | – |
| CCCC/C=C/COc1ccc(C(=O)Nc2cccc3c2OC(c2nnn[nH]2)CO3)cc1 (stereo unspecified) | 0.47 | ID50 [2]: 0.0055 mg/kg |
| CCCCCc1ccc(/C=C/C(=O)Nc2ccccc2OCC(=O)O)cc1 | 9000 | ID50 [2]: 4.2 mg/kg |
| CCCCCc1ccc(C(=O)Nc2cccc3c2OC(c2nnn[nH]2)CO3)cc1 (stereo unspecified) | 2600 | – |
| CCCCc1ccc(/C=C/C(=O)Nc2cccc3c2OC(c2nnn[nH]2)CO3)cc1 (stereo unspecified) | 220 | – |
| CCCCCCCCOc1ccc(C(=O)Nc2cccc3c(=O)cc(-c4nn[nH]n4)oc23)cc1 | 5.5 | – |
| CCCCc1ccc(/C=C/C(=O)Nc2cccc3c(=O)cc(-c4nn[nH]n4)oc23)cc1 | 34 | – |
| C=CCCC/C=C/COc1ccc(C(=O)Nc2cccc3c2OC(c2nnn[nH]2)CO3)cc1 (stereo unspecified) | 1.1 | inhibition in vivo at 10 mg/kg [3]: 2.9% |
| CCCCCOc1cccc(C(=O)Nc2cccc3c2OC(c2nnn[nH]2)CO3)c1 (stereo unspecified) | 5000 | – |
| CCCCCCCCCCc1ccc(C(=O)Nc2cccc3c2OC(c2nnn[nH]2)CO3)cc1 (stereo unspecified) | 500 | – |
| CCCCCCCCCCOc1ccc(C(=O)Nc2cccc3c2OC(c2nnn[nH]2)CO3)cc1 (stereo unspecified) | 300 | – |
| CCCCOc1ccc(C(=O)Nc2cccc3c(=O)cc(-c4nn[nH]n4)oc23)cc1 | 5 | – |
| CCCCCCc1ccc(C(=O)Nc2cccc3c2OC(c2nnn[nH]2)CO3)cc1 (stereo unspecified) | 210 | – |
| CCCCCCOc1ccc(/C=C/C(=O)Nc2cccc3c2OC(c2nnn[nH]2)CO3)cc1 (stereo unspecified) | 21 | – |

| SMILES | IC50 [1] [nM] | further results |
| --- | --- | --- |
| CCCCCOc1cccc(/C=C/C(=O)Nc2cccc3c2OC(c2nnn[nH]2)CO3)c1 (stereo unspecified) | 150 | – |
| CCCCCCCCCOc1ccc(C(=O)Nc2cccc3c2OC(c2nnn[nH]2)CO3)cc1 (stereo unspecified) | 20 | – |
| CCCCCCCOc1ccc(/C=C/C(=O)Nc2cccc3c(=O)cc(-c4nn[nH]n4)oc23)cc1 | 140 | – |
| CCCCCCCCOc1ccc(/C=C/C(=O)Nc2cccc3c2OC(c2nnn[nH]2)CO3)cc1 (stereo unspecified) | 215 | – |
| CCCCCCCCOc1ccc(C(=O)Nc2cccc3c2OC(c2nnn[nH]2)CO3)cc1 (stereo unspecified) | 14 | – |
| CCCCCCCc1ccc(C(=O)Nc2cccc3c2OC(c2nnn[nH]2)CO3)cc1 (stereo unspecified) | 70 | – |
| O=C(Nc1cccc2c1OC(c1nnn[nH]1)CO2)c1ccc(OCCc2ccccc2)cc1 (stereo unspecified) | 62 | – |
| CCCCCCc1ccc(C(=O)Nc2cccc3c(=O)cc(-c4nn[nH]n4)oc23)cc1 | 15 | – |
| CCCCCc1ccc(C(=O)Nc2cccc3c(=O)cc(-c4nn[nH]n4)oc23)cc1 | 180 | – |
| CCCOc1ccc(C(=O)Nc2cccc3c2OC(c2nnn[nH]2)CO3)cc1 (stereo unspecified) | 2200 | – |
| CC/C=C/COc1ccc(C(=O)Nc2cccc3c2OC(c2nnn[nH]2)CO3)cc1 (stereo unspecified) | 150 | – |
| CCCCOc1ccc(/C=C/C(=O)Nc2cccc3c2OC(c2nnn[nH]2)CO3)cc1 (stereo unspecified) | 120 | – |
| O=C(Nc1cccc2c1OC(c1nnn[nH]1)CO2)c1ccc(OCCCCCc2ccccc2)cc1 (stereo unspecified) | 11 | – |
| CCCCCCCCCc1ccc(C(=O)Nc2cccc3c(=O)cc(-c4nn[nH]n4)oc23)cc1 | 7 | – |
| CCCCCCCCc1ccc(C(=O)Nc2cccc3c2OC(c2nnn[nH]2)CO3)cc1 (stereo unspecified) | 100 | – |
| CCCCCc1ccc(/C=C/C(=O)Nc2ccccc2CC(=O)O)cc1 | 20000 | – |
| CCCCCc1ccccc1C(=O)Nc1cccc2c1OC(c1nnn[nH]1)CO2 (stereo unspecified) | 40000 | – |
| CCCCCCOc1ccc(C(=O)Nc2cccc3c2OC(c2nnn[nH]2)CO3)cc1 (stereo unspecified) | 13 | – |
| CCCCCOc1ccccc1/C=C/C(=O)Nc1cccc2c1OC(c1nnn[nH]1)CO2 (stereo unspecified) | 2300 | – |
| CCCC/C=C/COc1ccc(C(=O)Nc2cccc3c(=O)cc(-c4nn[nH]n4)oc23)cc1 | 0.031 | ID50 [2]: 0.0011 mg/kg |
| CCCCCc1ccc(/C=C/C(=O)Nc2cccc3ccc(-c4nn[nH]n4)cc23)cc1 | 300 | – |
| C=CCCC/C=C/COc1ccc(C(=O)Nc2cccc3c(=O)cc(-c4nn[nH]n4)oc23)cc1 | 0.16 | inhibition in vivo at 0.3 mg/kg [4]: < 44.6%; ID50 [2]: 0.0012 mg/kg |
| CCCCCOc1ccc(C(=O)Nc2cccc3c(=O)cc(-c4nn[nH]n4)oc23)cc1 | 53 | – |
| CCC/C=C/COc1ccc(C(=O)Nc2cccc3c(=O)cc(-c4nn[nH]n4)oc23)cc1 | 1.5 | – |
| CCCCCOc1ccccc1C(=O)Nc1cccc2c1OC(c1nnn[nH]1)CO2 (stereo unspecified) | 9400 | – |
